In brackets after ≈: the same amount, converted by molar mass.
test system: platelet aggregation (human PRP vs ADP); experiment: not given; conditions: U.S. Pat. No. 4,460,598 / Drugs of the Future 11, 26 (1986); cited from earlier work

Question: With `O=C(O)CCCCCCCOc1nc(-c2ccccc2)c(-c2ccccc2)n1-c1ccccc1` [Octimibate] as the compound, how does the “inhibition of platelet aggregation, in words” value read?
Answer: broad spectrum inhibitor of platelet aggregation

same assay, conditions: human PRP vs ADP; U.S. Pat. No. 4,460,598 / Drugs of the Future 11, 26 (1986); cited from earlier work

Question: For `O=C(O)CCCCCCCOc1nc(-c2ccccc2)c(-c2ccccc2)n1-c1ccccc1` [Octimibate], which “IC50 (human PRP vs ADP)” value is on record?
Answer: 1 µg/mL (≈ 2.2 µM)

test system: ADP-induced aggregation of human blood platelets in platelet-rich-plasma; experiment: In vitro inhibition of ADP-induced human platelet aggregation (aggregometer method, PRP); format: cell-based; conditions: Homo sapiens, Platelet, read-out: IC50 (human PRP vs ADP), human PRP, incubated at about 37° C. for about 3 minutes prior to ADP
Description: The aggregometer method of Born, G. V. R., J. Physiol., (London), 162, 67-68, (1962) as modified by Mustard, J. F., et al., J. Lab. Clin. Med., 64, 548-599, (1964) was used to assess the in vitro activity of the various compounds as to the inhibition of adenosine diphosphate (ADP) and collagen-induced platelet aggregation. The human volunteer donor's arm is cleansed with 70% ethyl alcohol. A sterile 20 ml syringe and needle are used to withdraw 20 ml of blood. The blood is immediately added to a test tube containing 3.8% sodium citrate to prevent clotting (1 part citrate to 9 parts blood).
Platelet rich plasma (PRP) was separated by centrifugation for 10 minutes at 1000 rpm (140×g) from citrated (3.8%) human blood. All glassware used for preparation of PRP is silicon treated. ADP in final concentration of 0.5 mcg/mL or 0.05 mL of a collagen suspension prepared according to the method described by Evans, G., et al., J. Exp. Med., 128, 877-894, (1968) was used to induce aggregation. The various compounds tested were dissolved in dimethylsulfoxide (DMSO) so that 5 mcl added to the platelet rich plasma would yield the desired test concentration. Vehicle control trials were done and compared with aggregation induced in platelet rich plasma containing various concentrations of the test compounds. Dose response curves were obtained and Inhibitor Concentration (IC50) values calculated.
The target compounds were evaluated as inhibitors of ADP-induced aggregation of human blood platelet in platelet-rich-plasma (PRP) in vitro. The test compounds were incubated at about 37° C. in PRP for about 3 minutes prior to the addition of sufficient ADP to provide final ADP concentration of […].

Question: Which IC50 does the source give for `COC(=O)COc1cccc(-c2c(-c3nc(-c4ccccc4)c(-c4ccccc4)o3)cnn2C)c1` [Compound 13, Methyl[3-[4-(4,5-diphenyl-2-oxazolyl)-1-methyl-5-pyrazolyl]phenoxy]acetate] here?
Answer: 0.75 µg/mL (≈ 1.61 µM)

Question: Which IC50 does the source give for `COC(=O)COc1cccc(-c2oc(C)nc2-c2nc(-c3ccccc3)c(-c3ccccc3)o2)c1` [Compound 23, Methyl[3-[4-(4,5-diphenyl-2-oxazolyl)-2-methyl-5-oxazolyl]phenoxy]acetate] here?
Answer: 0.13 µg/mL (≈ 0.279 µM)

Question: For `O=C(O)COc1cccc(-c2ccccc2-c2nc(-c3ccccc3)c(-c3ccccc3)o2)c1` [Compound 7, [2'-(4,5-Diphenyl-2-oxazolyl)-[1,1'-biphenyl]-3-yloxy]acetic acid], which IC50 is on record?
Answer: 5 µg/mL (≈ 11.2 µM)

Question: For `Cn1ncc(-c2nc(-c3ccccc3)c(-c3ccccc3)o2)c1-c1cccc(OCC(=O)O)c1` [Compound 14], which IC50 is on record?
Answer: 0.5 µg/mL (≈ 1.11 µM)

Question: Which IC50 does the source give for `COC(=O)COc1cccc(-c2ccccc2-c2nc(-c3ccccc3)c(-c3ccccc3)o2)c1` [Compound 6, Methyl[2'-(4,5-diphenyl-2-oxazolyl)-[1,1'-biphenyl]-3-yloxy]acetate] here?
Answer: 32 µg/mL (≈ 69.3 µM)

Question: Which IC50 does the source give for `COC(=O)COc1cccc(-c2oc(-c3ccccc3)nc2-c2nc(-c3ccccc3)c(-c3ccccc3)o2)c1` [Compound 25, Methyl[3-[4-(4,5-diphenyl-2-oxazolyl) -2-phenyl-5-oxazolyl]phenoxy]acetate] here?
Answer: 32 µg/mL (≈ 60.5 µM)

Question: Which IC50 does the source give for `COC(=O)COc1cccc([C@@H]2OC=N[C@H]2c2nc(-c3ccccc3)c(-c3ccccc3)o2)c1` (relative stereo) [Compound 31, Methyl[3-[4-(4,5-diphenyl-2-oxazolyl)-4,5-dihydro-5-oxazolyl]phenoxy]acetate] here?
Answer: 0.08 µg/mL (≈ 0.176 µM)

Question: Which IC50 does the source give for `Cc1nc(-c2nc(-c3ccccc3)c(-c3ccccc3)o2)c(-c2cccc(OCC(=O)O)c2)o1` [Compound 24] here?
Answer: 0.02 µg/mL (≈ 0.0442 µM)

Question: For `COC(=O)COc1cccc([C@@H]2OC(c3ccccc3)=N[C@H]2c2nc(-c3ccccc3)c(-c3ccccc3)o2)c1` (relative stereo) [Compound 40, Methyl[3-[4-(4,5-diphenyl-2-oxazolyl)-4,5-dihydro-2-phenyl-5-oxazolyl]phenoxy]acetate], which IC50 is on record?
Answer: 10 µg/mL (≈ 18.8 µM)

Question: With `O=CNC(c1nc(-c2ccccc2)c(-c2ccccc2)o1)C(O)c1cccc(OCC(=O)O)c1` (centres unmarked) [Compound 36] as the compound, how does the IC50 read?
Answer: 6.5 µg/mL (≈ 14.2 µM)

Question: With `O=C(O)COc1cccc(-c2ncoc2-c2nc(-c3ccccc3)c(-c3ccccc3)o2)c1` [Compound 5] as the compound, how does the IC50 read?
Answer: 0.07 µg/mL (≈ 0.16 µM)

Question: With `COC(=O)COc1cccc([C@@H]2OC(C)=N[C@H]2c2nc(-c3ccccc3)c(-c3ccccc3)o2)c1` (relative stereo) [Compound 39, Methyl[3-[4-(4,5-diphenyl-2-oxazolyl)-4,5-dihydro-2-methyl-5-oxazolyl]phenoxy]acetate] as the compound, how does the IC50 read?
Answer: 0.65 µg/mL (≈ 1.39 µM)

Question: For `COC(=O)COc1cccc([C@H]2OC(c3ccccc3)=N[C@H]2c2nc(-c3ccccc3)c(-c3ccccc3)o2)c1` (relative stereo) [Compound 42, Methyl[3-[4-(4,5-diphenyl-2-oxazolyl)-4,5-dihydro-2-phenyl-5-oxazolyl]phenoxy]acetate], which IC50 is on record?
Answer: 32 µg/mL (≈ 60.3 µM)

Question: For `COC(=O)COc1cccc([C@H]2OC(C)=N[C@H]2c2nc(-c3ccccc3)c(-c3ccccc3)o2)c1` (relative stereo) [Compound 41, Methyl[3-[4-(4,5-diphenyl-2-oxazolyl)-4,5-dihydro-2-methyl-5-oxazolyl]phenoxy]acetate], which IC50 is on record?
Answer: 27 µg/mL (≈ 57.6 µM)

Question: For `O=C(O)COc1cccc(-c2oc(-c3ccccc3)nc2-c2nc(-c3ccccc3)c(-c3ccccc3)o2)c1` [Compound 26, [3-[4-(4,5-Diphenyl-2-oxazolyl)-2-phenyl-5-oxazolyl]phenoxy]acetic acid], which IC50 is on record?
Answer: 32 µg/mL (≈ 62.2 µM)

Question: With `Cn1cc(-c2nc(-c3ccccc3)c(-c3ccccc3)o2)c(-c2cccc(OCC(=O)O)c2)n1` [Compound 12] as the compound, how does the IC50 read?
Answer: 0.3 µg/mL (≈ 0.664 µM)

Question: For `COC(=O)COc1cccc(C(O)C(NC=O)c2nc(-c3ccccc3)c(-c3ccccc3)o2)c1` (centres unmarked) [Compound 33, Methyl[3-[2-(4,5-diphenyl-2-oxazolyl)-2-(formylamino)-1-hydroxy-ethyl]phenoxy]acetate], which IC50 is on record?
Answer: 10 µg/mL (≈ 21.2 µM)

Question: With `COC(=O)COc1cccc(-c2nn(C)cc2-c2nc(-c3ccccc3)c(-c3ccccc3)o2)c1` [Compound 11, Methyl[3-[4-(4,5-diphenyl-2-oxazoly)-1-methyl-3-pyrazolyl]phenoxy]acetate] as the compound, how does the IC50 read?
Answer: 1.12 µg/mL (≈ 2.41 µM)

Question: With `O=C(O)COc1cccc(-c2[nH]ncc2-c2nc(-c3ccccc3)c(-c3ccccc3)o2)c1` [Compound 16, [3-[4-(4,5-Diphenyl-2-oxazolyl)-5-pyrazolyl]phenoxy]acetic acid] as the compound, how does the IC50 read?
Answer: 0.08 µg/mL (≈ 0.183 µM)

Question: Which IC50 does the source give for `COC(=O)COc1cccc(-c2[nH]ncc2-c2nc(-c3ccccc3)c(-c3ccccc3)o2)c1` [Compound 15, Methyl[3-[4-(4,5-diphenyl-2-oxazolyl)-5-pyrazolyl]phenoxy]acetate] here?
Answer: 0.07 µg/mL (≈ 0.155 µM)

Question: Which IC50 does the source give for `COC(=O)COc1cccc(-c2ncoc2-c2nc(-c3ccccc3)c(-c3ccccc3)o2)c1` [Compound 4] here?
Answer: 0.174 µg/mL (≈ 0.385 µM)

Question: With `COC(=O)COc1cccc(C(O)C(N)c2nc(-c3ccccc3)c(-c3ccccc3)o2)c1` (centres unmarked) [Compound 38, Methyl[3-[2-(4,5-diphenyl-2-oxazolyl)-2-amino-1-hydroxyethyl]phenoxy]acetate] as the compound, how does the IC50 read?
Answer: 2.8 µg/mL (≈ 6.3 µM)

Question: With `COC(=O)COc1cccc(C2OC(=O)NC2c2nc(-c3ccccc3)c(-c3ccccc3)o2)c1` (centres unmarked) [Compound 43, Methyl[3-[4-(4,5-diphenyl-2-oxazolyl)-2-oxo-5-oxazolidinyl]phenoxy]acetate] as the compound, how does the IC50 read?
Answer: 5 µg/mL (≈ 10.6 µM)

same assay, conditions: Homo sapiens, Platelet, read-out: percentage in brackets beside the IC50 entry 32 (inhibition of ADP-induced aggregation)

Question: Which inhibition at 32 µg/mL does the source give for `COC(=O)COc1cccc(-c2ccccc2-c2nc(-c3ccccc3)c(-c3ccccc3)o2)c1` [Compound 6, Methyl[2'-(4,5-diphenyl-2-oxazolyl)-[1,1'-biphenyl]-3-yloxy]acetate] here?
Answer: 34%

Question: With `COC(=O)COc1cccc(-c2oc(-c3ccccc3)nc2-c2nc(-c3ccccc3)c(-c3ccccc3)o2)c1` [Compound 25, Methyl[3-[4-(4,5-diphenyl-2-oxazolyl) -2-phenyl-5-oxazolyl]phenoxy]acetate] as the compound, how does the inhibition at 32 µg/mL read?
Answer: 6%

Question: Which inhibition at 32 µg/mL does the source give for `COC(=O)COc1cccc([C@H]2OC(c3ccccc3)=N[C@H]2c2nc(-c3ccccc3)c(-c3ccccc3)o2)c1` (relative stereo) [Compound 42, Methyl[3-[4-(4,5-diphenyl-2-oxazolyl)-4,5-dihydro-2-phenyl-5-oxazolyl]phenoxy]acetate] here?
Answer: 15%

Question: For `O=C(O)COc1cccc(C2OC(=O)NC2c2nc(-c3ccccc3)c(-c3ccccc3)o2)c1` (centres unmarked) [Compound 45, [3-[4-(4,5-Diphenyl-2-oxazolyl)-2-oxo-5-oxazolidinyl]phenoxy]acetic acid], which inhibition at 32 µg/mL is on record?
Answer: 8%

same assay, conditions: human PRP, incubated at about 37° C. for about 3 minutes prior to ADP

Question: For `NC(c1nc(-c2ccccc2)c(-c2ccccc2)o1)C(O)c1cccc(OCC(=O)O)c1` (centres unmarked) [Compound 37], which “IC50 (human PRP vs ADP)” value is on record?
Answer: 0.9 µg/mL (≈ 2.09 µM)

Question: Which “IC50 (human PRP vs ADP)” value does the source give for `O=C(O)COc1cccc(C2OC(=O)NC2c2nc(-c3ccccc3)c(-c3ccccc3)o2)c1` (centres unmarked) [Compound 44, [3-[4-(4,5-Diphenyl-2-oxazolyl)-2-oxo-5-oxazolidinyl]phenoxy]acetic acid] here?
Answer: 1 µg/mL (≈ 2.19 µM)

Question: With `O=C(O)COc1cccc(C2OC(=O)NC2c2nc(-c3ccccc3)c(-c3ccccc3)o2)c1` (centres unmarked) [Compound 45, [3-[4-(4,5-Diphenyl-2-oxazolyl)-2-oxo-5-oxazolidinyl]phenoxy]acetic acid] as the compound, how does the “IC50 (human PRP vs ADP)” value read?
Answer: 32 µg/mL (≈ 70.1 µM)
